Results as given in ChEMBL document CHEMBL1130260, “A strategy for the incorporation of water molecules present in a ligand binding site into a three-dimensional quantitative structure--activity relationship analysis” (J Med Chem, 1997).

Target: Glycogen phosphorylase, muscle form (Oryctolagus cuniculus) (UniProt P00489)
Conditions: Muscle tissue

Glycogen phosphorylase, muscle form (Oryctolagus cuniculus), sequence (P00489 whole entry, looked up): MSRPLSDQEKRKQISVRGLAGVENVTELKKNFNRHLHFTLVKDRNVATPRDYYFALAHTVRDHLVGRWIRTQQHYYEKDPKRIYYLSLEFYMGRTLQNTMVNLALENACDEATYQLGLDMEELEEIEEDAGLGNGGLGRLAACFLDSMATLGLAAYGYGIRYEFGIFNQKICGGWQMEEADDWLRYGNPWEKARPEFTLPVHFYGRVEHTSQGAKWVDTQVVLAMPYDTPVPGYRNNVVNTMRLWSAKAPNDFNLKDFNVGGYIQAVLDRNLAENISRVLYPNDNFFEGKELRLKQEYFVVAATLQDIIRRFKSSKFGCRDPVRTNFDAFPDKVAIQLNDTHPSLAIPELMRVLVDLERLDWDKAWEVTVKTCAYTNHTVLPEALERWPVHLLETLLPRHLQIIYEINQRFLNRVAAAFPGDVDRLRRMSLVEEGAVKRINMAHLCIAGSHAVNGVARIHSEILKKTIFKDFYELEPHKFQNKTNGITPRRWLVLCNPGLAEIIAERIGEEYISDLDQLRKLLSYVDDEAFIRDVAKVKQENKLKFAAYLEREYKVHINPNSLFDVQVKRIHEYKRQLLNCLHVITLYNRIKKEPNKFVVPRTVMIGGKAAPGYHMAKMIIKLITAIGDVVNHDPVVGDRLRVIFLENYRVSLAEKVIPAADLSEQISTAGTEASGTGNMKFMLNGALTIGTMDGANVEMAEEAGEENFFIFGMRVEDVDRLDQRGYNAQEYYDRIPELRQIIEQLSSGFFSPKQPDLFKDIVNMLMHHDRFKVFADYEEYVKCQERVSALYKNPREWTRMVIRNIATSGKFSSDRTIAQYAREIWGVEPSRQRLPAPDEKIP

Row | pKi | Compound
1 | 3.8 | CNC(=O)C1OC(CO)C(O)C(O)C1O (stereo not drawn)
2 | 1.78 | NCC1OC(CO)C(O)C(O)C1O (stereo in doubt; 19)
3 | 2.32 | CS(=O)(=O)OCC1OC(CO)C(O)C(O)C1O (stereo not drawn)
4 | 2.52 | NNC(=O)[C@@H]1O[C@H](CO)[C@@H](O)[C@H](O)[C@H]1O (stereo in doubt; 3)
5 | 1.65 | [N-]=[N+]=NC[C@H]1O[C@H](CO)[C@@H](O)[C@H](O)[C@H]1O
6 | 2.7 | OC[C@@H]1O[C@H](OC[C@H]2S[C@H](O)[C@H](O)[C@@H](O)[C@@H]2O)[C@@H](O)[C@@H](O)[C@@H]1O
7 | 4.41 | CCC(=O)N[C@H]1O[C@H](CO)[C@@H](O)[C@H](O)[C@H]1O
8 | 1.62 | COC(=O)C1OC(CO)C(O)C(O)C1O (stereo in doubt; 4)
9 | 4.09 | O=C(N[C@H]1O[C@H](CO)[C@@H](O)[C@H](O)[C@H]1O)c1ccccc1
10 | 4.35 | O=C(CCl)N[C@H]1O[C@H](CO)[C@@H](O)[C@H](O)[C@H]1O
11 | 1.79 | OC[C@H]1O[C@H](OCC2O[C@@H](O)[C@H](O)[C@@H](O)[C@@H]2O)[C@H](O)[C@@H](O)[C@H]1O (stereo partly drawn)
12 | 3 | OCC1OC(S)C(O)C(O)C1O (stereo not drawn)
13 | 4.8 | COC(=O)N[C@]1(C(N)=O)O[C@H](CO)[C@@H](O)[C@H](O)[C@H]1O (stereo in doubt; 35)
14 | 2.43 | CS(=O)(=O)OC[C@]1(O)O[C@@H](CO)[C@@H](O)[C@H](O)[C@@H]1O
15 | 3 | CC(=O)NCC(=O)N[C@H]1O[C@H](CO)[C@@H](O)[C@H](O)[C@H]1O
16 | 2.82 | OCC1OC(CO)C(O)C(O)C1O (stereo not drawn)
17 | 2.35 | NCCC1OC(CO)C(O)C(O)C1O (stereo not drawn)
18 | 3.5 | COC(=O)N[C@]1(C(N)=O)O[C@H](CO)[C@@H](O)[C@H](O)[C@H]1O (stereo in doubt; 49)
19 | 2.27 | O=C(Nc1ccccc1)C1OC(CO)C(O)C(O)C1O (stereo not drawn)
20 | 3.26 | CC(=O)NN1C(=O)N[C@@]2(O[C@@H](CO)[C@@H](O)[C@H](O)[C@@H]2O)C1=O
21 | 1.46 | NCC1OC(CO)C(O)C(O)C1O (stereo in doubt; 5)
22 | 3.4 | NNC(=O)[C@@H]1O[C@H](CO)[C@@H](O)[C@H](O)[C@H]1O (stereo in doubt; 14)
23 | 2.36 | O=C(Nc1ccc(O)cc1)[C@H]1O[C@@H](O)[C@@H](O)[C@H](O)[C@@H]1O
24 | 3.85 | NC(=O)N[C@H]1O[C@H](CO)[C@@H](O)[C@H](O)[C@H]1O

Row | pKi | Compound
25 | 3.84 | NN1C(=O)N[C@@]2(O[C@@H](CO)[C@@H](O)[C@H](O)[C@@H]2O)C1=O
26 | 3.43 | NC(=O)C1OC(CO)C(O)C(O)C1O (stereo in doubt; 2)
27 | 2.55 | COC(=O)C1OC(CO)C(O)C(O)C1O (stereo in doubt; 18)
28 | 1.72 | O=C(CS[C@H]1O[C@H](CO)[C@@H](O)[C@H](O)[C@H]1O)Nc1ccc(F)cc1F
29 | 1.82 | [N-]=[N+]=NC[C@@H]1O[C@H](CO)[C@@H](O)[C@H](O)[C@H]1O
30 | 2.09 | O=C(NCC(F)(F)F)[C@H]1O[C@@H](CO)[C@@H](O)[C@H](O)[C@@H]1O
31 | 3.43 | NCC(=O)N[C@H]1O[C@@H](CO)[C@@H](O)[C@H](O)[C@@H]1O
32 | 3.36 | NC(=O)C1OC(CO)C(O)C(O)C1O (stereo in doubt; 9)
33 | 4.22 | O=C1CNC(=O)[C@@]2(N1)O[C@@H](CO)[C@@H](O)[C@H](O)[C@@H]2O
34 | 2.75 | CNNC(=O)[C@H]1O[C@H](CO)[C@@H](O)[C@H](O)[C@H]1O
35 | 4.03 | CCCC(=O)N[C@H]1O[C@H](CO)[C@@H](O)[C@H](O)[C@H]1O
36 | 2.89 | O=C(NC1CC1)[C@H]1O[C@@H](CO)[C@@H](O)[C@H](O)[C@@H]1O
37 | 1.68 | NC(=O)CS[C@H]1O[C@H](CO)[C@@H](O)[C@H](O)[C@H]1O
38 | 4.5 | CC(=O)N[C@H]1O[C@H](CO)[C@@H](O)[C@H](O)[C@H]1O
39 | 2.12 | N#CC[C@]1(O)O[C@H](CO)[C@@H](O)[C@H](O)[C@H]1O
40 | 4.07 | COC(=O)N[C@@H]1O[C@H](CO)[C@@H](O)[C@H](O)[C@H]1O
41 | 2.13 | [N-]=[N+]=NC[C@@]1(O)O[C@@H](CO)[C@@H](O)[C@H](O)[C@@H]1O
42 | 2.59 | OC[C@@H]1O[C@H](n2cc(O[C@@H]3O[C@H](CO)[C@@H](O)[C@H](O)[C@H]3O)c3ccccc32)[C@@H](O)[C@@H](O)[C@@H]1O
43 | 2.59 | O=C(NCCO)[C@H]1O[C@@H](CO)[C@@H](O)[C@H](O)[C@@H]1O
44 | 2.05 | N#CC[C@@H]1O[C@H](CO)[C@@H](O)[C@H](O)[C@H]1O
45 | 1.8 | OC[C@@H]1O[C@@](O)(CO)[C@@H](O)[C@@H](O)[C@@H]1O
46 | 4.41 | O=C1N[C@@]2(O[C@@H](CO)[C@@H](O)[C@H](O)[C@@H]2O)C(=O)N1O
47 | 2.44 | O=C(CS[C@H]1O[C@H](CO)[C@@H](O)[C@H](O)[C@H]1O)Nc1ccccc1
48 | 4.36 | O=C(CBr)N[C@H]1O[C@@H](CO)[C@@H](O)[C@H](O)[C@@H]1O
